These results are taken from patent US12350270B2, “Antimalarial agents” (Merck Sharp & Dohme LLC, priority 2019, dated 2025).

For this experiment, the system named is parasites (ring stage, in human red blood cell culture). Description: Parasite LDH growth assay (antiparasite potency, Parasite Assay). Format: cell-based, Plasmodium falciparum. The conditions noted are these: 0.7% rings, 2% haematocrit, 72 hours at 37° C., LDH readout of parasite growth. In outline: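 Growth was read by an LDH assay after a freeze–thaw cycle (−80 °C overnight, 4 h thaw at RT). Before that, parasites grew with compound for 72 h at 37 °C under gassed, humidified conditions. The input was a ring-stage culture adjusted to 0.7% parasitemia and 2% haematocrit in serum (5%)/albumax (0.5%)-supplemented RPMI-Hepes.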

Setting [1] is: Plasmodium falciparum, Erythrocyte, 72 h.

`CCC1(CC)C[C@@H](N2C(=N)NC(C)(C)CC2=O)c2cc(C(=O)N[C@@H]3c4ccccc4OC[C@H]3O)ccc2O1` [Example 57A, (R)-2,2-diethyl-N-((3S,4R)-3-hydroxychroman-4-yl)-4-(2-imino-4,4-dimethyl-6-oxotetrahydropyrimidin-1(2H)-yl)chromane-6-carboxamide] had an EC50 of 18.3 nM.

Under setting [1], `CC1(C)CC(=O)N([C@@H]2CC(C)(C)Oc3ccc(C(=O)N[C@H]4c5cc(F)ccc5OC(C)(C)[C@@H]4O)cc32)C(=N)N1` [Example 58A, (R)-N-((3R,4S)-6-fluoro-3-hydroxy-2,2-dimethylchroman-4-yl)-4-(2-imino-4,4-dimethyl-6-oxotetrahydropyrimidin-1(2H)-yl)-2,2-dimethylchromane-6-carboxamide] yielded an EC50 of 250 nM.

For the molecule `CC1(C)CC(=O)N([C@@H]2CC(C)(C)Oc3ccc(C(=O)N[C@@H]4c5cc(F)ccc5OC(C)(C)[C@H]4O)cc32)C(=N)N1` [Example 58B, (R)-N-((3S,4R)-6-fluoro-3-hydroxy-2,2-dimethylchroman-4-yl)-4-(2-imino-4,4-dimethyl-6-oxotetrahydropyrimidin-1(2H)-yl)-2,2-dimethylchromane-6-carboxamide], under setting [1], the EC50 was 3.8 nM.

`CCC1(CC)C[C@@H](N2C(=N)NC(C)(C)CC2=O)c2cc(C(=O)N[C@H]3c4cc(F)ccc4OC(C)(C)[C@@H]3O)ccc2O1` [Example 59A, (R)-2,2-diethyl-N-((3R,4S)-6-fluoro-3-hydroxy-2,2-dimethylchroman-4-yl)-4-(2-imino-4,4-dimethyl-6-oxotetrahydropyrimidin-yl)chromane-6-carboxamide]: the EC50 under setting [1] was 210 nM.

Regarding `CCC1(CC)C[C@@H](N2C(=N)NC(C)(C)CC2=O)c2cc(C(=O)N[C@@H]3c4cc(F)ccc4OC(C)(C)[C@H]3O)ccc2O1` [Example 59B, (R)-2,2-diethyl-N-((3S,4R)-6-fluoro-3-hydroxy-2,2-dimethylchroman-4-yl)-4-(2-imino-4,4-dimethyl-6-oxotetrahydropyrimidin-1(2H)-yl)chromane-6-carboxamide], the EC50 under setting [1] worked out at 1.6 nM. This EC50 is about 130-fold lower than that of the molecule before.

Regarding `CC1(C)CC(=O)N([C@@H]2CCOc3ccc(C(=O)N[C@@H]4c5ccccc5C[C@H]4O)cc32)C(=N)N1` [Example 61A, (R)-N-((1R,2R)-2-hydroxy-2,3-dihydro-1H-inden-l-yl)-4-(2-imino-4,4-dimethyl-6-oxotetrahydropyrimidin-1(2H)-yl)chromane-6-carboxamide], under setting [1], a half-maximal effect (EC50) was put at 8.4 nM.

The molecule `CC1(C)CC(=O)N([C@@H]2CCOc3ccc(C(=O)N[C@@H]4c5ccccc5OC(C)(C)[C@H]4O)cc32)C(=N)N1` [Example 62A, (R)-N-((3S,4R)-3-hydroxy-2,2-dimethylchroman-4-yl)-4-(2-imino-4,4-dimethyl-6-oxotetrahydropyrimidin-1(2H)-yl)chromane-6-carboxamide] returned an EC50 under setting [1] of 1.2 nM.

`CCC1(CC)CC(=O)N([C@@H]2CCOc3ccc(C(=O)NC4CC(=O)Oc5ccccc54)cc32)C(=N)N1` (stereo partly drawn) [Example 63A, (4R)-4-(4,4-diethyl-2-imino-6-oxotetrahydropyrimidin-1(2H)-yl)-N-(2-oxochroman-4-yl)chromane-6-carboxamide]: under setting [1], the response was half-maximal at 220 nM (EC50).

In the case of `CCC1(CC)CC(=O)N([C@@H]2CCOc3ccc(C(=O)N4Cc5ccccc5C4)cc32)C(=N)N1` [Example 66A, (R)-6,6-diethyl-2-imino-3-(6-(isoindoline-2-carbonyl)chroman-4-yl)tetrahydropyrimidin-4(1H)-one], the EC50 under setting [1] was 76 nM.

In turn, `CCC1(CC)CC(=O)N([C@H]2c3cc(C(=O)N[C@@H]4c5ccccc5OC(C)(C)[C@H]4O)ccc3OCC2OC)C(=N)N1` (stereo partly drawn) [Example 67A, (3R,4S)-4-(4,4-diethyl-2-imino-6-oxotetrahydropyrimidin-1(2H)-yl)-N-((3S,4R)-3-hydroxy-2,2-dimethylchroman-4-yl)-3-methoxychromane-6-carboxamide] registered an EC50 of 170 nM.

In turn, `CCC1(CC)CC(=O)N([C@H]2c3cc(C(=O)N[C@@H]4c5ccccc5OC(C)(C)[C@H]4O)ccc3OCC2OC)C(=N)N1` (stereo partly drawn) [Example 67B, (3R,4S)-4-(4,4-diethyl-2-imino-6-oxotetrahydropyrimidin-1(2H)-yl)-N-((3S,4R)-3-hydroxy-2,2-dimethylchroman-4-yl)-3-methoxychromane-6-carboxamide] had an EC50 of 0.8 nM.

Regarding `CCC1(CC)CC(=O)N([C@H]2c3cc(C(=O)N[C@H]4CC(C)(C)Oc5ccccc54)ccc3OCC2OC)C(=N)N1` (stereo partly drawn) [Example 68A, (3R,4S)-4-(4,4-diethyl-2-imino-6-oxotetrahydropyrimidin-1(2H)-dimethylchroman-4-yl)-3-methoxychromane-6-carboxamide], the EC50 under setting [1] was found to be 1 nM. In other words, the single-digit nanomolar range.

Consider `CCC1(CC)CC(=O)N([C@H]2c3cc(C(=O)N[C@@H]4c5ccccc5C[C@H]4O)ccc3OC[C@@H]2OC)C(=N)N1` [Example 69A, (3R,4S)-4-(4,4-diethyl-2-imino-6-oxotetrahydropyrimidin-1(2H)-yl)-N-((1R,2R)-2-hydroxy-2,3-dihydro-1H-inden-1-yl)-3-methoxychromane-6-carboxamide], for which the midpoint of the response, the EC50, lay at 2.6 nM.

The molecule `CCC1(CC)CC(=O)N([C@@H]2CCS(=O)(=O)c3ccc(C(=O)N[C@H]4CC(C)(C)Oc5ccccc54)cc32)C(=N)N1` [Example 70A, (R)-4-(4,4-diethyl-2-imino-6-oxotetrahydropyrimidin-1(2H)-yl)-N-((S)-2,2-dimethylchroman-4-yl)thiochromane-6-carboxamide 1,1-dioxide] showed an EC50 of 9.3 nM. This EC50 is about 3.6-fold higher than that of the molecule before.

Under setting [1], `CCC1(CC)CC(=O)N([C@@H]2CCS(=O)(=O)c3ccc(C(=O)N[C@@H]4c5ccccc5OC(C)(C)[C@H]4O)cc32)C(=N)N1` [Example 71A, (R)-4-(4,4-diethyl-2-imino-6-oxotetrahydropyrimidin-1(2H)-yl)-N-((3S,4R)-3-hydroxy-2,2-dimethylchroman-4-yl)thiochromane-6-carboxamide 1,1-dioxide] returned an EC50 of 3.5 nM.

As to `CCC1(CC)CC(=O)N([C@H]2c3cc(C(=O)N[C@@H]4c5ccccc5C[C@H]4O)ccc3OCC2OC)C(=N)N1` (stereo partly drawn) [Example 72A, (3R,4S)-4-(4,4-diethyl-2-imino-6-oxotetrahydropyrimidin-1(2H)-yl)-N-((lR,2R)-2-hydroxy-2,3-dihydro-1H-inden-1-yl)-3-methoxychromane-6-carboxamide], the EC50 is 0.5 nM.

For the molecule `CCC1(CC)CC(=O)N([C@H]2c3cc(C(=O)N[C@@H]4c5ccccc5C[C@H]4O)ccc3O[C@@]2(C)COC)C(=N)N1` [Example 75A, (2R,3S)-3-(4,4-diethyl-2-imino-6-oxotetrahydropyrimidin-1(2H)-yl)-N-((1R,2R)-2-hydroxy-2,3-dihydro-1H-inden-1-yl)-2-(methoxymethyl)-2-methyl-2,3-dihydrobenzofuran-5-carboxamide], the EC50 under setting [1] was determined as 0.4 nM. This counts as sub-nanomolar.

For the molecule `CCC1(CC)CC(=O)N([C@H]2c3cc(C(=O)N[C@@H]4c5ccccc5C[C@H]4O)ccc3O[C@]2(C)COC)C(=N)N1` [Example 75B, (2S,3S)-3-(4,4-diethyl-2-imino-6-oxotetrahydropyrimidin-1(2H)-yl)-N-((1R,2R)-2-hydroxy-2,3-dihydro-1H-inden-1-yl)-2-(methoxymethyl)-2-methyl-2,3-dihydrobenzofuran-5-carboxamide], the EC50 under setting [1] was 9.5 nM.
